Source: patent US6673938B1, “Substituted pyridine herbicides” (Syngenta Participations AG, priority 1998, dated 2004)

Legend:
[1] = system: Monocotyledonous and dicotyledonous test plants; assay: Post-emergence herbicidal action; assay type: in vivo; settings: evaluated after approximately 18 days; for Post-emergence action, Ipomoea / Post-emergence action, Lolium / Post-emergence action, Setaria / Post-emergence action, Sinapis / Post-emergence action, Solanum / Post-emergence action, Stellaria: 2000 g/ha, sprayed in 4- to 6-leaf stage, nine-step scale
Experimental: Monocotyledonous and dicotyledonous test plants are grown in the greenhouse in plastic pots containing standard soil, and, in the 4- to 6-leaf stage, sprayed with an aqueous suspension of the test substances of the formula I prepared with a 25% wettable powder (Example F3, b) in accordance with WO 97/34485) or with an emulsion of the test substances of the formula I prepared with a 25% emulsion concentrate (Example F1, c) in accordance with WO 97/34485), corresponding to a rate of 2 kg of a.i./ha or 250 g of a.i./ha (500 l of water/ha). The test plants are subsequently grown on in the greenhouse under optimal conditions. After a test period of approximately 18 days, the test is evaluated with reference to a nine-step scale (1=complete damage, 9=no effect). Score figures of 1 to 4 (in particular 1 to 3) mean a good to very good herbicidal action. In this test, the compounds of the formula I show a potent herbicidal action.

[2] = system: Monocotyledonous and dicotyledonous test plants; assay: Herbicidal action before emergence of the plants (pre-emergence action); assay type: in vivo; settings: evaluated after 3 weeks, nine-step scale; for pre-emergence action, Cyperus / pre-emergence action, Ipomoea / pre-emergence action, Setaria / pre-emergence action, Sinapis / pre-emergence action, Solanum / pre-emergence action, Stellaria: 2000 g/ha
Experimental: Monocotyledonous and dicotyledonous test plants are sown in standard soil in plastic pots. Immediately after sowing, the test substances as aqueous suspensions (prepared with a 25% wettable powder (Example F3, b) in accordance with WO 97/34485) or as emulsions (prepared with a 25% emulsion concentrate (Example F1, c)) are sprayed on at a rate of 2 kg of a.i./ha or 250 g of a.i./ha (500 l of water/ha). The test plants are then grown in the greenhouse under optimal conditions. After a test period of 3 weeks, the experiment is evaluated with reference to a nine-step scale (1=complete damage, 9=no effect). Score figures of 1 to 4 (in particular 1 to 3) mean a good to very good herbicidal action.

COC(=O)C1(C)CCC(=O)C(C(=O)c2ccc(C(F)(F)F)nc2C)=C1O (stereo not shown) [Compound A2-B34]
Post-emergence action, Ipomoea [1]: 1
Post-emergence action, Lolium [1]: 3
Post-emergence action, Setaria [1]: 2
Post-emergence action, Sinapis [1]: 1
Post-emergence action, Solanum [1]: 1
Post-emergence action, Stellaria [1]: 2
pre-emergence action, Cyperus [2]: 1
pre-emergence action, Ipomoea [2]: 3
pre-emergence action, Setaria [2]: 2
pre-emergence action, Sinapis [2]: 2
pre-emergence action, Solanum [2]: 1
pre-emergence action, Stellaria [2]: 2

CCOC(=O)C1(C)CCC(=O)C(C(=O)c2ccc(C(F)(F)F)nc2C)=C1O (stereo not shown) [Compound A2-B35]
Post-emergence action, Ipomoea [1]: 1
Post-emergence action, Lolium [1]: 3
Post-emergence action, Setaria [1]: 2
Post-emergence action, Sinapis [1]: 1
Post-emergence action, Solanum [1]: 1
Post-emergence action, Stellaria [1]: 2
pre-emergence action, Cyperus [2]: 2
pre-emergence action, Ipomoea [2]: 4
pre-emergence action, Setaria [2]: 2
pre-emergence action, Sinapis [2]: 2
pre-emergence action, Solanum [2]: 2
pre-emergence action, Stellaria [2]: 2

Cc1nc(C(F)(F)F)ccc1C(=O)C1=C(O)C(C(C)C)CC(C)C1=O (stereo not shown) [Compound A2-B49]
Post-emergence action, Ipomoea [1]: 2
Post-emergence action, Lolium [1]: 2
Post-emergence action, Setaria [1]: 2
Post-emergence action, Sinapis [1]: 1
Post-emergence action, Solanum [1]: 2
Post-emergence action, Stellaria [1]: 2
pre-emergence action, Cyperus [2]: 2
pre-emergence action, Ipomoea [2]: 4
pre-emergence action, Setaria [2]: 2
pre-emergence action, Sinapis [2]: 2
pre-emergence action, Solanum [2]: 1
pre-emergence action, Stellaria [2]: 2

Cc1nc(C(F)(F)F)ccc1C(=O)C1=C(O)C(C)(C)CC(C)C1=O (stereo not shown) [Compound A2-B68]
Post-emergence action, Ipomoea [1]: 1
Post-emergence action, Lolium [1]: 2
Post-emergence action, Setaria [1]: 2
Post-emergence action, Sinapis [1]: 1
Post-emergence action, Solanum [1]: 1
Post-emergence action, Stellaria [1]: 2
pre-emergence action, Cyperus [2]: 1
pre-emergence action, Ipomoea [2]: 2
pre-emergence action, Setaria [2]: 1
pre-emergence action, Sinapis [2]: 2
pre-emergence action, Solanum [2]: 1
pre-emergence action, Stellaria [2]: 2

CCC1(C)CC(C)C(=O)C(C(=O)c2ccc(C(F)(F)F)nc2C)=C1O (stereo not shown) [Compound A2-B69]
Post-emergence action, Ipomoea [1]: 1
Post-emergence action, Lolium [1]: 2
Post-emergence action, Setaria [1]: 2
Post-emergence action, Sinapis [1]: 1
Post-emergence action, Solanum [1]: 2
Post-emergence action, Stellaria [1]: 2
pre-emergence action, Cyperus [2]: 1
pre-emergence action, Ipomoea [2]: 4
pre-emergence action, Setaria [2]: 2
pre-emergence action, Sinapis [2]: 2
pre-emergence action, Solanum [2]: 1
pre-emergence action, Stellaria [2]: 1

CSC1(C)CC(C)C(=O)C(C(=O)c2ccc(C(F)(F)F)nc2C)=C1O (stereo not shown) [Compound A2-B73]
Post-emergence action, Ipomoea [1]: 1
Post-emergence action, Lolium [1]: 3
Post-emergence action, Setaria [1]: 2
Post-emergence action, Sinapis [1]: 1
Post-emergence action, Solanum [1]: 1
Post-emergence action, Stellaria [1]: 2
pre-emergence action, Cyperus [2]: 3
pre-emergence action, Ipomoea [2]: 4
pre-emergence action, Setaria [2]: 2
pre-emergence action, Sinapis [2]: 2
pre-emergence action, Solanum [2]: 2
pre-emergence action, Stellaria [2]: 2

Cc1nc(C(F)(F)F)ccc1C(=O)C1=C(O)C(C)(S(C)(=O)=O)CC(C)C1=O (stereo not shown) [Compound A2-B75]
Post-emergence action, Ipomoea [1]: 2
Post-emergence action, Lolium [1]: 2
Post-emergence action, Setaria [1]: 3
Post-emergence action, Sinapis [1]: 1
Post-emergence action, Solanum [1]: 2
Post-emergence action, Stellaria [1]: 2
pre-emergence action, Cyperus [2]: 2
pre-emergence action, Ipomoea [2]: 3
pre-emergence action, Setaria [2]: 2
pre-emergence action, Sinapis [2]: 2
pre-emergence action, Solanum [2]: 1
pre-emergence action, Stellaria [2]: 2

Cc1nc(C(F)(F)F)ccc1C(=O)C1=C(O)C(C)(C)CC(C)(C)C1=O [Compound A2-B90]
Post-emergence action, Ipomoea [1]: 1
Post-emergence action, Lolium [1]: 2
Post-emergence action, Setaria [1]: 2
Post-emergence action, Sinapis [1]: 1
Post-emergence action, Solanum [1]: 2
Post-emergence action, Stellaria [1]: 2
pre-emergence action, Cyperus [2]: 1
pre-emergence action, Ipomoea [2]: 1
pre-emergence action, Setaria [2]: 1
pre-emergence action, Sinapis [2]: 1
pre-emergence action, Solanum [2]: 1
pre-emergence action, Stellaria [2]: 1

CCC1(C)CC(C)(C)C(=O)C(C(=O)c2ccc(C(F)(F)F)nc2C)=C1O (stereo not shown) [Compound A2-B91]
Post-emergence action, Ipomoea [1]: 1
Post-emergence action, Lolium [1]: 2
Post-emergence action, Setaria [1]: 2
Post-emergence action, Sinapis [1]: 1
Post-emergence action, Solanum [1]: 2
Post-emergence action, Stellaria [1]: 2
pre-emergence action, Cyperus [2]: 1
pre-emergence action, Ipomoea [2]: 2
pre-emergence action, Setaria [2]: 1
pre-emergence action, Sinapis [2]: 2
pre-emergence action, Solanum [2]: 1
pre-emergence action, Stellaria [2]: 2

Cc1nc(C(F)(F)F)ccc1C(=O)C1=C(O)C(C)(C(C)C)CC(C)(C)C1=O (stereo not shown) [Compound A2-B93]
Post-emergence action, Ipomoea [1]: 1
Post-emergence action, Lolium [1]: 2
Post-emergence action, Setaria [1]: 2
Post-emergence action, Sinapis [1]: 1
Post-emergence action, Solanum [1]: 2
Post-emergence action, Stellaria [1]: 2
pre-emergence action, Cyperus [2]: 2
pre-emergence action, Ipomoea [2]: 4
pre-emergence action, Setaria [2]: 2
pre-emergence action, Sinapis [2]: 2
pre-emergence action, Solanum [2]: 1
pre-emergence action, Stellaria [2]: 2

CSC1(C)CC(C)(C)C(=O)C(C(=O)c2ccc(C(F)(F)F)nc2C)=C1O (stereo not shown) [Compound A2-B95]
Post-emergence action, Ipomoea [1]: 1
Post-emergence action, Lolium [1]: 2
Post-emergence action, Setaria [1]: 2
Post-emergence action, Sinapis [1]: 1
Post-emergence action, Solanum [1]: 2
Post-emergence action, Stellaria [1]: 2
pre-emergence action, Cyperus [2]: 2
pre-emergence action, Ipomoea [2]: 4
pre-emergence action, Setaria [2]: 2
pre-emergence action, Sinapis [2]: 2
pre-emergence action, Solanum [2]: 1
pre-emergence action, Stellaria [2]: 2

Cc1nc(C(F)(F)F)ccc1C(=O)C1=C(O)CC(C)CC1=O (stereo not shown) [Compound A2-B133]
Post-emergence action, Ipomoea [1]: 1
Post-emergence action, Lolium [1]: 2
Post-emergence action, Setaria [1]: 2
Post-emergence action, Sinapis [1]: 1
Post-emergence action, Solanum [1]: 2
Post-emergence action, Stellaria [1]: 2
pre-emergence action, Cyperus [2]: 1
pre-emergence action, Ipomoea [2]: 2
pre-emergence action, Setaria [2]: 2
pre-emergence action, Sinapis [2]: 2
pre-emergence action, Solanum [2]: 1
pre-emergence action, Stellaria [2]: 2

Cc1nc(C(F)(F)F)ccc1C(=O)C1=C(O)C(C)C(C)CC1=O (stereo not shown) [Compound A2-B134]
Post-emergence action, Ipomoea [1]: 2
Post-emergence action, Lolium [1]: 2
Post-emergence action, Setaria [1]: 1
Post-emergence action, Sinapis [1]: 1
Post-emergence action, Solanum [1]: 1
Post-emergence action, Stellaria [1]: 2
pre-emergence action, Cyperus [2]: 1
pre-emergence action, Ipomoea [2]: 2
pre-emergence action, Setaria [2]: 1
pre-emergence action, Sinapis [2]: 2
pre-emergence action, Solanum [2]: 1
pre-emergence action, Stellaria [2]: 1

CCOC(=O)C1C(O)=C(C(=O)c2ccc(C(F)(F)F)nc2C)C(=O)CC1C (stereo not shown) [Compound A2-B145]
Post-emergence action: Abutilon (score, nine-step scale) ([1]; Abutilon, 250 g/ha, sprayed at 4- to 6-leaf stage): 3
Post-emergence action: Chenop. (score, nine-step scale) ([1]; Chenop., 250 g/ha, sprayed at 4- to 6-leaf stage): 1
Post-emergence action: Digitaria (score, nine-step scale) ([1]; Digitaria, 250 g/ha, sprayed at 4- to 6-leaf stage): 2
Post-emergence action: Echino. (score, nine-step scale) ([1]; Echino., 250 g/ha, sprayed at 4- to 6-leaf stage): 2
Post-emergence action: Ipopur. (score, nine-step scale) ([1]; Ipopur., 250 g/ha, sprayed at 4- to 6-leaf stage): 3
Post-emergence action: Panicum (score, nine-step scale) ([1]; Panicum, 250 g/ha, sprayed at 4- to 6-leaf stage): 2
Post-emergence action: Xanth. (score, nine-step scale) ([1]; Xanth., 250 g/ha, sprayed at 4- to 6-leaf stage): 3
Pre-emergence action, Abutilon ([2]; Abutilon, 250 g/ha): 2
Pre-emergence action, Amaranthus ([2]; Amaranthus, 250 g/ha): 3
Pre-emergence action, Chenop. ([2]; Chenop., 250 g/ha): 1
Pre-emergence action, Digitaria ([2]; Digitaria, 250 g/ha): 2
Pre-emergence action, Echino. ([2]; Echino., 250 g/ha): 4
Pre-emergence action, Panicum ([2]; Panicum, 250 g/ha): 2
